Columns and labels:
Glucocorticoid receptor = target: T1, Glucocorticoid receptor (Homo sapiens, UniProt P04150); conditions: hela s3; further: in other assays of this panel Not Active means under 50% inhibition at 10 µM
T1 sequence (P04150 whole entry): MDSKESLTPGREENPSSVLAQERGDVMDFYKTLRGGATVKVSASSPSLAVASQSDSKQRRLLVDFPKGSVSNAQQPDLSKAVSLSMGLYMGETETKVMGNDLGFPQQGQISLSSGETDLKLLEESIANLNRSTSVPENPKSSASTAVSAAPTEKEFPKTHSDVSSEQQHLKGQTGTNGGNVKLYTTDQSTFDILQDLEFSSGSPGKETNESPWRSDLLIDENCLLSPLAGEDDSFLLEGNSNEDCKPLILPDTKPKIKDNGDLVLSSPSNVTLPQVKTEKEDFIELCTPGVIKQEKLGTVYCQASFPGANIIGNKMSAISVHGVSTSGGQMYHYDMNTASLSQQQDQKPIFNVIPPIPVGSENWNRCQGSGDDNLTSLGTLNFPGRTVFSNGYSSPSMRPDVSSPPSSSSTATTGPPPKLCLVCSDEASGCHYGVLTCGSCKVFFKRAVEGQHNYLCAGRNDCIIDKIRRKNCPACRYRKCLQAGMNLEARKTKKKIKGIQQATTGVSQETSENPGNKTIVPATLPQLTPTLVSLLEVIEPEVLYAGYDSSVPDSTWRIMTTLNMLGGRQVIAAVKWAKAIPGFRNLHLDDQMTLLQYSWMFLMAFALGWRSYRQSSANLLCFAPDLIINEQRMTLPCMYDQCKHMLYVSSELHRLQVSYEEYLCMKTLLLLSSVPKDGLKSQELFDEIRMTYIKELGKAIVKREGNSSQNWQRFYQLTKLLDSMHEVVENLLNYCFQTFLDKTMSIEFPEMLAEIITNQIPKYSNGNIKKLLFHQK

[1] = target: T2, 5-hydroxytryptamine receptor 1A (Rattus norvegicus, UniProt P19327); assay type: cell membranes, CHO-K1, Membrane; further: in other assays of this panel Not Active means under 50% inhibition at 10 µM
T2 sequence (P19327 whole entry): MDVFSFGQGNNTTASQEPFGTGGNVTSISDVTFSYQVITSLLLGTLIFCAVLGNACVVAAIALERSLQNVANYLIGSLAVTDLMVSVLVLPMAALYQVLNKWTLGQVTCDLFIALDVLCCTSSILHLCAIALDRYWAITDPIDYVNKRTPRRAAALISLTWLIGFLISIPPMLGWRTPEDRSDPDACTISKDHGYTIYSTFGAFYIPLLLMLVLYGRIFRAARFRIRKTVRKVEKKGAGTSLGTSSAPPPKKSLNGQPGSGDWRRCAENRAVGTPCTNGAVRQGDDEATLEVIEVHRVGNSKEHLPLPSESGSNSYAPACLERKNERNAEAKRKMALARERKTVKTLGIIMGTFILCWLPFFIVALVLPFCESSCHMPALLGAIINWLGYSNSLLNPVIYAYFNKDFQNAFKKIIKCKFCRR

[2] = target: T3, Type-2 angiotensin II receptor (Homo sapiens, UniProt P50052); assay type: cell-based; conditions: cho-k1; further: in other assays of this panel Not Active means under 50% inhibition at 10 µM
T3 sequence (P50052 whole entry): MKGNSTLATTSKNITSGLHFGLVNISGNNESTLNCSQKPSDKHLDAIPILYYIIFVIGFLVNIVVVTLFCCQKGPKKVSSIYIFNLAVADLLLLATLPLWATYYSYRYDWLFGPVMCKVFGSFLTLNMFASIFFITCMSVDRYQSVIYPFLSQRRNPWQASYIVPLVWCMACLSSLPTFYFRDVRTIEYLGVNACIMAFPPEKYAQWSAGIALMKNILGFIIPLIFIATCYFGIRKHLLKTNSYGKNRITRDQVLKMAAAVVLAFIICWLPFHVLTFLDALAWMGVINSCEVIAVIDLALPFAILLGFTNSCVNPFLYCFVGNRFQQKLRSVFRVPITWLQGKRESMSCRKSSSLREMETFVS

[3] = DRUGMATRIX: Glutamate, AMPA radioligand binding (ligand: [3H] AMPA); assay type: cell membranes, Rattus norvegicus, Wistar, Cerebral cortex, Membrane; conditions: Not Active = under 50% inhibition at 10 µM
[4] = target: cGMP-specific 3',5'-cyclic phosphodiesterase (Homo sapiens, UniProt O76074); assay: DRUGMATRIX: Phosphodiesterase PDE5 enzyme inhibition (substrate: [3H]cGMP + cGMP); assay type: tissue-based, Platelet; conditions: platelet; Not Active = under 50% inhibition at 10 µM
[5] = DRUGMATRIX: Atrial Natriuretic Factor (ANF) radioligand binding (ligand: [125I] ANF (rat)); assay type: cell membranes, Cavia porcellus, Dunkin-Hartley, Adrenal gland, Membrane; conditions: Not Active = under 50% inhibition at 10 µM
[6] = target: T4, C-C chemokine receptor type 4 (Homo sapiens, UniProt P51679); assay type: cell membranes, Membrane; conditions: chem-1; further: in other assays of this panel Not Active means under 50% inhibition at 10 µM
T4 sequence (P51679 whole entry): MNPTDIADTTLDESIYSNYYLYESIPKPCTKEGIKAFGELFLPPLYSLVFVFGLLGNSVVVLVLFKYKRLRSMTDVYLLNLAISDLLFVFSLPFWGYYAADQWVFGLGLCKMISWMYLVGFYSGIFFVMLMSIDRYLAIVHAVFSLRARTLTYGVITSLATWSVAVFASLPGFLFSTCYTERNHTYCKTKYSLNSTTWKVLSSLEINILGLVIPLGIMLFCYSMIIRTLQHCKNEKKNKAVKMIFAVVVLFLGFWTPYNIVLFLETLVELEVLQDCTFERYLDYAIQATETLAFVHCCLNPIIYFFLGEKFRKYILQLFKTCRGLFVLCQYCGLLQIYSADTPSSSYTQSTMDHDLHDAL

Row | Molecule | IC50 (Glucocorticoid receptor) | IC50 ([1]; cho-k1) | IC50 [2] | IC50 [3] | Ki [3] | IC50 [4] | IC50 [5] | Ki [5] | IC50 [6] | IC50 ([1]; read-out: IC50) [µM] | Ki ([1]; read-out: Ki) [µM] | Ki (Glucocorticoid receptor) | Ki ([1]; cho-k1) | Ki [2] | Ki [4] | Ki [6]
1 | O=C(N/N=C/c1ccc([N+](=O)[O-])o1)c1cc([N+](=O)[O-])cc([N+](=O)[O-])c1O [NIFURSOL] | Not Active | Not Active | Not Active | Not Active | Not Active | Not Active | Not Active | Not Active | Not Active | – | – | – | – | – | – | –
2 | COC(=O)Nc1nc2ccc(C(=O)c3cccs3)cc2[nH]1 [NOCODAZOLE] | Not Active | Not Active | Not Active | Not Active | Not Active | Not Active | Not Active | Not Active | Not Active | – | – | – | – | – | – | –
3 | COC(=O)Nc1nc2ccc([S+]([O-])c3ccccc3)cc2[nH]1 (configuration not stated) [OXFENDAZOLE] | Not Active | Not Active | Not Active | Not Active | Not Active | Not Active | Not Active | Not Active | Not Active | – | – | – | – | – | – | –
4 | CC(=O)O[C@H]1C(=O)[C@@]2(C)[C@H]([C@H](OC(=O)c3ccccc3)[C@]3(O)C[C@H](OC(=O)[C@H](O)[C@@H](NC(=O)c4ccccc4)c4ccccc4)C(C)=C1C3(C)C)[C@]1(OC(C)=O)CO[C@@H]1C[C@@H]2O [PACLITAXEL] | Not Active | Not Active | Not Active | Not Active | Not Active | Not Active | Not Active | Not Active | Not Active | – | – | – | – | – | – | –
5 | C[n+]1ccc(-c2cc[n+](C)cc2)cc1.[Cl-].[Cl-] [PARAQUAT DICHLORIDE] | Not Active | Not Active | Not Active | Not Active | Not Active | Not Active | Not Active | Not Active | Not Active | – | – | – | – | – | – | –
6 | CC(C)NCC(O)COc1cccc2[nH]ccc12 (configuration not stated) [PINDOLOL] | Not Active | – | Not Active | Not Active | Not Active | Not Active | Not Active | Not Active | Not Active | 0.048 | 0.027 | – | – | – | – | –
7 | CCn1cc(C(=O)O)c(=O)c2cnc(N3CCCC3)nc21 [PIROMIDIC ACID] | Not Active | Not Active | Not Active | Not Active | Not Active | Not Active | Not Active | Not Active | Not Active | – | – | – | – | – | – | –
8 | C[n+]1ccccc1/C=N/O.[Cl-] [PRALIDOXIME CHLORIDE] | Not Active | Not Active | Not Active | Not Active | Not Active | Not Active | Not Active | Not Active | Not Active | – | – | – | – | – | – | –
9 | COc1cc2nc(N3CCN(C(=O)c4ccco4)CC3)nc(N)c2cc1OC [PRAZOSIN] | Not Active | Not Active | Not Active | Not Active | Not Active | Not Active | Not Active | Not Active | Not Active | – | – | – | – | – | – | –
10 | CCCN(CCC)S(=O)(=O)c1ccc(C(=O)O)cc1 [PROBENECID] | Not Active | Not Active | Not Active | Not Active | Not Active | Not Active | Not Active | Not Active | Not Active | – | – | – | – | – | – | –
11 | CCCOc1ccc(C(=O)OCCN(CC)CC)cc1N [PROPARACAINE] | Not Active | Not Active | Not Active | Not Active | Not Active | Not Active | Not Active | Not Active | Not Active | – | – | – | – | – | – | –
12 | C[C@@H]1O[C@@H](O[C@@H]2C=C3CC[C@@H]4[C@H](CC[C@]5(C)[C@@H](c6ccc(=O)oc6)CC[C@]45O)[C@@]3(C)CC2)[C@H](O)[C@H](O)[C@H]1O [PROSCILLARIDIN] | Not Active | Not Active | Not Active | Not Active | Not Active | Not Active | Not Active | Not Active | Not Active | – | – | – | – | – | – | –
13 | Oc1cccc(O)c1O [PYROGALLOL] | Not Active | Not Active | Not Active | Not Active | Not Active | Not Active | Not Active | Not Active | Not Active | – | – | – | – | – | – | –
14 | AURANOFIN | – | Not Active | Not Active | Not Active | Not Active | Not Active | Not Active | Not Active | Not Active | – | – | 0.599 µM | Not Active | Not Active | Not Active | Not Active
15 | GADOPENTETATE DIMEGLUMINE | Not Active | Not Active | Not Active | Not Active | Not Active | Not Active | Not Active | Not Active | Not Active | – | – | Not Active | Not Active | Not Active | Not Active | Not Active
16 | GENTAMICIN | Not Active | Not Active | Not Active | Not Active | Not Active | Not Active | Not Active | Not Active | Not Active | – | – | Not Active | Not Active | Not Active | Not Active | Not Active
17 | GRAMICIDIN | Not Active | Not Active | Not Active | Not Active | Not Active | Not Active | Not Active | Not Active | Not Active | – | – | Not Active | Not Active | Not Active | Not Active | Not Active
18 | NYSTATIN | Not Active | Not Active | Not Active | Not Active | Not Active | Not Active | Not Active | Not Active | Not Active | – | – | Not Active | Not Active | Not Active | Not Active | Not Active
